{"source": "patent US20140322771A1", "about": "“Lipid Production” (THE UNIVERSITY OF QUEENSLAND, priority 2010, published 2014)", "molecules": {"B1": {"name": "CDS1 gene RNAi: hairpin RNAi construct of exons 1-3 of the Chlamydomonas CDS1p homologue (C—30067, SEQ ID NO: 41), LC8 promoter (nucleic acid)", "DNA": "ATGCGACCAAAACAACAAGCTCAGGTCACCGCCGCGGAGGACACCGCGTCGGAGCCGGAGCCGGAGCCCAAGCCCGTGGATCGAAAGTCGAGGCTCAGGTCCTTCCGCGTACGCACCATCTCCTCGGTCTTGCTCATCGGCGGGTTCATCGGCATCATTTGGGCGGGTCATGTGCCGCTTATGTTCTTCATCCTGCTACTCCAGTTCCTGGTGGCCCGGGAGCTCTTCCGCATCGCCTACATAGCGGAGAAGTCCAAACGCAGCC", "modifications": "LC8 promoter; Hairpin RNAi construct targetting Chlamydomonas sp. CDS1p Homologue"}}, "key": {"[1]": {"test_system": "S. cerevisiae WT and sld mutant strains", "test": "Formation of supersized lipid droplets (SLDs) in yeast, Nile red staining and fluorescence microscopy", "type": "cell-based, Saccharomyces cerevisiae", "procedure": "To screen for yeast mutants that generate supersized LDs, cells were cultured in synthetic complete media (0.67% yeast nitrogen base, 2% dextrose, and amino acids) in 96-well plates at 30° C. till stationary phase. For TetO7-regulated strains, 15 μg/ml doxycycline was added to repress specific genes. Cells were stained with 20 μg/ml Nile red for LDs and observed by fluorescence microscopy. Yeast strains found to contain SLDs were recultured in synthetic complete media with aeration in 10 ml culture tubes to confirm the phenotype. These strains were also grown in YPD media (1% yeast extract, 2% peptone, and 2% dextrose) to examine the morphology of LDs.\nFor phospholipid precursor treatment, synthetic complete medium was supplemented with 1 mM choline, 1 mM ethanolamine, or 75 μM inositol.\nFluorescent imaging was performed under a Leica CTR5500 microscope (Wetzlar, Germany) with an EL6000 fluorescent lamp. Images were taken with a DFC300 FX digital camera and a Leica LAS AF software. Yeast cells were viewed under a ×100/1.30 oil immersion objective lens. A 450-490-nm bandpass excitation filter, a 510 dichromatic mirror, and a 515-nm longpass emission filter (Leica filter cube I3) were chosen to observe Nile red-stained LDs. For statistical presentation of the percentage of cells containing supersized LDs, 200 cells were observed and percentage was calculated. The experiments were done in triplicates and the result was shown as mean±SD. Mammalian LDs were stained with Bodipy 493/503 (Invitrogen) and observed with a 470/40-nm bandpass excitation filter, a 500-nm dichromatic mirror, and a 525/50-nm bandpass emission filter (Leica filter cube GFP)."}, "[2]": {"test_system": "lipid droplets of S. cerevisiae mutant strains", "test": "Lipidomic analysis of lipid droplets isolated from yeast (PE/PL and PL/TAG ratio)", "type": "cell-based, Saccharomyces cerevisiae", "procedure": "Lipid droplets were isolated as described in Fei et al. (Fei et al., (2008), “Fld1p, a functional homologue of human seipin, regulates the size of lipid droplets in yeast”, J Cell Biol 180: 473-482).\nLipids were extracted from zymolase-digested lyophilized yeast cells, isolated ER microsomes or lipid droplets. Briefly 900 μl ice-clod chlorofom:methanol (1:2) was added to samples. Mixtures were vigorously vortexed for 1 min, and incubated for 2 h in vacuum container with rotary shaking at 4° C. Then 400 μl ice-cold water and 300 μl chloroform were added, vortexed and incubated on ice for 1 min. After centrifugation at 12000 rpm for 3 min at 4° C., the lower organic phase was collected. Subsequently, 50 μl 1 M HCl and 500 μl chloroform were added to the remainder, vortexed, and incubated on ice for 3 min. The lower organic phase was also collected after centrifugation at 12000 rpm for 3 min at 4° C., and combined with the first extract. The extracted lipids were blown dry with nitrogen gas, and resuspended in solvent for mass spectrometry analysis.\nLipidomic analysis, and quantitative measurement of neutral lipids via thin layer chromatography (TLC) were performed as described in Fei et al. (Fei et al., (2008), “Fld1p, a functional homologue of human seipin, regulates the size of lipid droplets in yeast”, J Cell Biol 180: 473-482) and Low et al. (Low et al., (2008), “Caspase-dependent and -independent lipotoxic cell-death pathways in fission yeast”, J Cell Sci 121: 2671-2684). TLC plates were developed in chloroform/methanol/water (65:25:4) to separate phospholipid species."}, "[3]": {"test_system": "Chlamydomonas homologue of CDS1p (gene C—30067)", "test": "Lipid droplet accumulation in Chlamydomonas after RNAi knockdown of the CDS1p homologue (Nile red)", "type": "cell-based", "details": "C. reinhardtii 21 gr transformed with hairpin RNAi construct, compared with wild type", "procedure": "A hairpin RNAi construct was made by using 1st-3rd exon of the Chlamydomonas homologue of CDS1p driven by LC8 promoter. The gene name of the homologue is C—30067. The LC8 promoter is from Chlamydomonas.\nThis construct was transformed into Chlamydomonas using a glass-bead method. The selection marker for transformation was APHVIII, whose expression conferred resistant to paromomysin.\nThe survival strains on agar plates were screened by using Nile Red staining. 1 ug/ml final concentration of Nile red was used.\nA Zeiss fluorescence microscope (Observer.Z1) with GFP filter was used for screening putative RNAi strains."}}, "note": "“Also recorded” adds a separate entry of the source.", "data": [{"molecule": "CCCCCCCC/C=C\\CCCCCCCC(=O)O", "note": "[oleate]", "values": [{"measurement": "number of cells producing SLD", "setting": "[1]; pah1Δ cells, supplement 1 mM each (about 3% of cells without supplement)", "value": "no effect"}]}, {"molecule": "O[C@H]1[C@H](O)[C@@H](O)[C@H](O)[C@@H](O)[C@H]1O", "note": "[inositol]", "values": [{"measurement": "SLD formation", "setting": "[1]; all sld mutants, SC media supplemented with 75 μM inositol", "value": "reduced the SLD formation in all mutants; also recorded: significant reduction of SLD formation"}, {"measurement": "biogenesis of supersized LDs", "setting": "[1]; ino4Δ cells, inositol addition, higher PE to PL ratio persisted", "value": "completely abolished the biogenesis of supersized LDs"}, {"measurement": "phospholipid to TAG ratio of LDs", "setting": "[2]; cds1 or ino4Δ mutant, inositol supplementation", "value": "did not increase"}]}, {"molecule": "NCCO", "note": "[ethanolamine]", "values": [{"measurement": "SLD formation", "setting": "[1]; most of the mutants, SC media supplemented with 1 mM ethanolamine", "value": "enhanced SLD formation in most of the mutants"}, {"measurement": "proportion of PE on lipid droplets", "setting": "[2]; fld1Δ and cds1 cells, SC medium with ethanolamine", "value": "significantly increased"}, {"measurement": "PE to PL ratio of LDs", "setting": "[2]; ino4Δ cells, SC medium with ethanolamine", "value": "moderately increased"}]}, {"molecule": "B1", "values": [{"measurement": "lipid droplet accumulation", "setting": "[3]", "value": "accumulated lipid droplet drastically"}]}]}
